Data published in US20080312128A1, “Cellular Biomarker Antioxidant Assay and Uses Thereof” (priority 2005, published 2008).
“Also recorded” adds a separate entry of the source.

What was measured:
Format in all cases: cell-based, human
HO-1 = experiment: Vitamin C pretreatment, OS-induced HO-1 transcription in RPE cells; settings: 500 μM H2O2, 1 hour and 4 hours after OS
Procedure: RNA was isolated from the cells using a no-rinse method after 1 hour or 4 hours of OS, and compared to no-OS controls. Gene-specific expression was quantified by real-time PCR on an ABI 7700 System. […] Experiments were carried out as described above. Briefly, ARPE19 cells were grown to confluence. […] Following RNA extraction and reverse transcription, real-time PCR was used to assess levels of gene transcripts, as described above. […] The data are normalized to 0 at time 0 in order to minimize the mild variability in starting values for the Ct seen within each experiment.

CRYBA = experiment: Vitamin C pretreatment, OS-induced CRYBA transcription in RPE cells; settings: for Inhibition of OS-induced CRYBA transcription: 0.0001-0.2 mM pretreatment
Procedure: (§1) RNA was isolated from the cells using a no-rinse method after 1 hour or 4 hours of OS, and compared to no-OS controls. Gene-specific expression was quantified by real-time PCR on an ABI 7700 System. […] Experiments were carried out as described above. Briefly, ARPE19 cells were grown to confluence. […] Following RNA extraction and reverse transcription, real-time PCR was used to assess levels of gene transcripts, as described above. […] The data are normalized to 0 at time 0 in order to minimize the mild variability in starting values for the Ct seen within each experiment. […] OS strongly induces gene expression in our gene panel, and the number of transcripts (amount of induction) is proportional to the level of OS. Therefore, protective effects of an antioxidant such as Vitamin C would be expected to reduce the level of transcripts. A protective effect is reflected in an inverse dose dependent (DD) relationship between the level of antioxidant agent (Vitamin C) and the level of transcripts. Higher pretreatment levels with the antioxidant should lead to a lower level of transcripts after OS (a lower change in Ct). An extremely low dose of Vitamin C (0.0001 mM) was chosen in these studies as a homeopathic dose that is not expected to be protective and should be similar to the positive control. This control was added to ensure that all cultures were treated in the same way, as we have determined that even minimal manipulations can have significant effects upon expression of these genes.

cFos = experiment: Vitamin C pretreatment, OS-induced cFos transcription in RPE cells
Procedure: as §1

ATF3 = experiment: Vitamin C pretreatment, OS-induced ATF3 transcription in RPE cells
Procedure: as §1, with “An extremely low dose of Vitamin C (0.0001 mM) was chosen in these studies as a homeopathic dose that is not expected to be protective and should be similar to the positive control.” left out

FosB = experiment: Vitamin C pretreatment, OS-induced FosB transcription in RPE cells; settings: for Inhibition of OS-induced FosB transcription: 0.0001-0.2 mM pretreatment
Procedure: as §1

With `O=C1O[C@H]([C@@H](O)CO)C(O)=C1O` [Vitamin C, L-ascorbic acid] as the compound, how does the “Response of HO-1 transcription after OS to pretreatment” value (HO-1) read?
Its value is “does not demonstrate any response; also recorded: does not appear to be reduced”.

And the “Inhibition of OS-induced CRYBA transcription” value (CRYBA; 500 μM H2O2, 1 hour)?
Its value is “DD response is evident”.

What about the “Inhibition of OS-induced CRYBA transcription” value (CRYBA; 500 μM H2O2, 4 hours) of the same compound?
Its value is “DD response is more evident”.

And the “Activation of CRYBA transcription by OS following pretreatment” value (CRYBA; summary, 500 μM H2O2)?
The value was “dose-dependent reduction”.

What about the “Inhibition of OS-induced cFos transcription” value (cFos; 0.0001-0.2 mM pretreatment, 500 μM H2O2, 1 hour) of the same compound?
The value was “modest threshold response”.

What about the “Inhibition of OS-induced cFos transcription” value (cFos; 0.2 mM dose, 500 μM H2O2, 1 hour) of the same compound?
Its value is “strong dose-dependence”.

And the “Inhibition of OS-induced cFos transcription” value (cFos; 500 μM H2O2, 4 hours)?
The value was “threshold response for the lower levels of Vitamin C is still seen”.

What about the “Activation of c-Fos transcription by OS following pretreatment” value (cFos; summary, 500 μM H2O2) of the same compound?
The value was “dose-dependent reduction”.

And the “Response of OS-induced ATF3 transcription to pretreatment” value (ATF3; 0.0001-0.2 mM pretreatment, 500 μM H2O2)?
The value was “we do not see a response; also recorded: does not appear to be reduced; also recorded: does not inhibit”.

What about the “Response of OS-induced ATF3 transcription to pretreatment” value (ATF3; 500 μM H2O2, 4 hours) of the same compound?
The value was “slight threshold response may be present”.

And the “Inhibition of OS-induced FosB transcription” value (FosB; 500 μM H2O2, 1 hour)?
The value was “modest dose response”.

What about the “Inhibition of OS-induced FosB transcription” value (FosB; 500 μM H2O2, 4 hours) of the same compound?
The value was “the effect is quite clear”.

And the “Activation of FosB transcription by OS following pretreatment” value (FosB; summary, 500 μM H2O2)?
Its value is “dose-dependent reduction”.
